Experimental data as given in doi:10.1101/2025.07.03.662948v1 (biorxiv, 2025).

T1: MtbCBS (Mycobacterium tuberculosis cystathionine β-synthase) (Mycobacterium tuberculosis, UniProt P9WP51)
T1 sequence (P9WP51 1-464): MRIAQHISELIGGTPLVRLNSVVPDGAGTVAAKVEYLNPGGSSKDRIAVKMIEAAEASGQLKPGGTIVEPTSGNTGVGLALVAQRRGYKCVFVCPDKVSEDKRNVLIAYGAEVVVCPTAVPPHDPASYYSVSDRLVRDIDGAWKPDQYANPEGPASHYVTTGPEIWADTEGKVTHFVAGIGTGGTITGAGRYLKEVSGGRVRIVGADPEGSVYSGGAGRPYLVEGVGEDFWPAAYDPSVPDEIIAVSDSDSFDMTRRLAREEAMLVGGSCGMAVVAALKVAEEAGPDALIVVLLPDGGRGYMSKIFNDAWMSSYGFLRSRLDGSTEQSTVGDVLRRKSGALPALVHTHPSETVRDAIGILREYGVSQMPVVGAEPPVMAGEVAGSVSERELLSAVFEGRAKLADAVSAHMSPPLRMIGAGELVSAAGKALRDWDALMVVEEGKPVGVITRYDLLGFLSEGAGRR

B1: MtbCBS (Mycobacterium tuberculosis cystathionine β-synthase) (Mycobacterium tuberculosis H37Rv) (protein)
chain: T1 sequence (P9WP51 1-464)

How the values were obtained:
[1] = molecular target: T1, MtbCBS (Mycobacterium tuberculosis cystathionine β-synthase); experiment: fluorescence of PLP aldimine; format: biochemical
[2] = substrate: N[C@@H](CS)C(=O)O; experiment: purified protein; conditions: pH 7.5; 25.0 °C

Molecule	IC50 [1]	Km [2]
NOCC(=O)O [AOAA]	~100 µM	
B1		15.47 mM
